Test system: rat diabetic nephropathy model
Experiment: Pharmacological effect in rat diabetic nephropathy model (streptozotocin)
Format: in vivo, rat (spontaneously hypertensive rat)
Settings: Day 27 after streptozotocin; orally once per day for 20 days from Day 8 (Example Compound 1 10 mg/kg, imidapril 2 mg/kg); mean±standard error, n=6
Description: Example Compound 1 was administered to a rat diabetic nephropathy model (International Journal of Molecular Medicine, 2007, vol. 19, p. 571-579; Hypertension, 1998, vol. 32, p. 778-785), and the therapeutic effect of the nipecotic acid derivative (I) or a pharmaceutically acceptable salt thereof on chronic renal disease with diabetic nephropathy was evaluated.
Rats (spontaneously hypertensive rat, male, 12 or 13 weeks old; Charles River Laboratories Japan, Inc.) with diabetic nephropathy induced by administration of an aqueous streptozotocin (Enzo Life Sciences, Inc.) solution (40 mg/kg) into the tail vein were provided as “group with induced diabetic nephropathy”. On the other hand, rats to which water for injection was similarly administered were provided as “untreated group”.
Six weeks after administration of streptozotocin, urine was collected using a metabolic cage at room temperature for 24 hours. The urinary albumin concentration in the collected urine was measured by the ELISA method. From the urinary albumin concentration and the urine weight, the amount of urinary albumin excretion was calculated.
To rats showing pathological conditions of diabetic nephropathy in the group with induced diabetic nephropathy, Example Compound 1 (10 mg/kg) or a positive control compound imidapril (2 mg/kg) was orally administered once per day for 20 days from Day 8 after the administration of streptozotocin. […]
After the last administration of the test substance on Day 27 after administration of streptozotocin, urine was collected using a metabolic cage at room temperature for 24 hours. The urinary albumin concentration in the collected urine was measured by the ELISA method. From the urinary albumin concentration and the urine weight, the amount of urinary albumin excretion was calculated. In addition, on Day 18 after administration of streptozotocin, the systemic systolic pressure was measured by the tail-cuff method. On Day 29 after administration of streptozotocin, blood was collected from the abdominal aorta of each rat, and the plasma glucose concentration was measured. […]

SMILES | amount of urinary albumin excretion [mg/day]
CCOC(=O)[C@H](CCc1ccccc1)N[C@@H](C)C(=O)N1C(=O)N(C)C[C@H]1C(=O)O [imidapril, reference compound] | 5.66 ± 0.91

Target: T1, recombinant human sEH (Homo sapiens, UniProt P34913)
T1 construct: purchased Cayman
T1 sequence (P34913 1-555): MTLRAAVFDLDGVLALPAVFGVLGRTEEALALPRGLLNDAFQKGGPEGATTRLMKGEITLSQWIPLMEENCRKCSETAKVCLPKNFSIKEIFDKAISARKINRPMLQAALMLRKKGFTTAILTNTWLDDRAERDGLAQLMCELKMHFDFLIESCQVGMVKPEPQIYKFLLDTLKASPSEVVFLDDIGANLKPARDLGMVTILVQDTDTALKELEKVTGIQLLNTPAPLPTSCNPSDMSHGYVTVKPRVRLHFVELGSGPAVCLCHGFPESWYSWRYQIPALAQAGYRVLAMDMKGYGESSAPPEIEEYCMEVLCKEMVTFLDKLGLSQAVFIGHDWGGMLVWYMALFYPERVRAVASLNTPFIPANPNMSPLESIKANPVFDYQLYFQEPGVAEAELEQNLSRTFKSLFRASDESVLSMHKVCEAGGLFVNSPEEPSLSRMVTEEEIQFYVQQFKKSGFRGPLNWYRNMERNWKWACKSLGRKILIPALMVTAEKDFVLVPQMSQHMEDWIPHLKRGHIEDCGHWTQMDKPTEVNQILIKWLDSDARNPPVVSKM
Experiment: In vitro evaluation test for sEH inhibitory activity
Format: biochemical
Settings: recombinant human sEH 0.026 μg/mL, fluorescent substrate 6.25 μmol/L, room temperature
Description: According to the method described in a known document (Analytical Biochemistry, 2005, vol. 343, p. 66-75), the sEH inhibitory activity of each nipecotic acid derivative (I) or a pharmaceutically acceptable salt thereof was evaluated using human sEH.
A recombinant human sEH (final concentration, 0.026 μg/mL; Cayman) was incubated with each test compound in 25 mM Bis-Tris-HCl buffer (pH 7.0) supplemented with 0.1 mg/mL BSA at room temperature for 30 minutes. Thereafter, cyano(6-methoxynaphthalen-2-yl)methyl 2-(3-phenyloxiran-2-yl)acetate (final concentration, 6.25 μmol/L; Cayman) was added thereto as a fluorescent substrate, and the resulting mixture was incubated at room temperature for 20 minutes. The reaction was then stopped by addition of ZnSO4 (final concentration, 0.2 mol/L), and the fluorescence intensity was measured (Fusion α (Packard); Excitation: 330 nm, Emission:485 nm).
The fluorescence intensity observed with addition of neither sEH nor a test compound was regarded as the sEH enzymatic reaction rate of 0%, and the fluorescence intensity observed with addition of sEH but without addition of a test compound was regarded as the sEH enzymatic reaction rate of 100%. From the obtained fluorescence intensity, the sEH enzymatic reaction rate of each test compound was calculated to determine IC50.

SMILES | IC50 [nM]
CC(=O)NC1(C(=O)N2CCC[C@@H](C(=O)NCc3ccc(C#N)cc3OC(F)(F)F)C2)CCCC1 [Example Compound 8, (R)-1-(1-acetamidocyclopentanecarbonyl)-N-(4-cyano-2-(trifluoromethoxy)benzyl)piperidine-3-carboxamide] | 1.7
N#Cc1ccc(CNC(=O)[C@@H]2CCCN(C(=O)C3(NC(=O)CC4CC4)CC3)C2)c(OC(F)(F)F)c1 [Example Compound 35, (R)—N-(4-cyano-2-(trifluoromethoxy)benzyl)-1-(1-(2-cyclopropylacetamido)cyclopropanecarbonyl)piperidine-3-carboxamide] | 6.7
CC(C)(C(=O)N1CCC[C@@H](C(=O)NCc2ccc(C#N)cc2OC(F)(F)F)C1)n1cncn1 [Example Compound 36, (R)—N-(4-cyano-2-(trifluoromethoxy)benzyl)-1-(2-methyl-2-(1H-1,2,4-triazol-1-yl)propanoyl)piperidine-3-carboxamide] | 1.5
CCCC(=O)NC1(C(=O)N2CCC[C@@H](C(=O)NCc3ccc(C#N)cc3OC(F)(F)F)C2)CCC1 [Example Compound 33, (R)-1-(1-butylamidocyclobutanecarbonyl)-N-(4-cyano-2-(trifluoromethoxy)benzyl)piperidine-3-carboxamide] | 2.4
CC(C)(C)C(=O)NC1(C(=O)N2CCC[C@@H](C(=O)NCc3ccc(C#N)cc3OC(F)(F)F)C2)CCC1 [Example Compound 7, (R)—N-(4-cyano-2-(trifluoromethoxy)benzyl)-1-(1-pivalamidocyclobutanecarbonyl)piperidine-3-carboxamide] | 0.8
N#Cc1ccc(CNC(=O)[C@@H]2CCCN(C(=O)C3(C#N)CC3)C2)c(OC(F)(F)F)c1 [Example Compound 23, (R)—N-(4-cyano-2-(trifluoromethoxy)benzyl)-1-(1-cyanocyclopropanecarbonyl)piperidine-3-carboxamide] | 1.8
CC[C@@H](NS(C)(=O)=O)C(=O)N1CCC[C@@H](C(=O)NCc2ccc(C#N)cc2OC(F)(F)F)C1 [Example Compound 22, (R)—N-(4-cyano-2-(trifluoromethoxy)benzyl)-1-((R)-2-(methylsulfonamido)butanoyl)piperidine-3-carboxamide] | 0.5
CC(C)(O)C(=O)N1CCC[C@@H](C(=O)NCc2ccc(C#N)cc2OC(F)(F)F)C1 [Example Compound 16, (R)—N-(4-cyano-2-(trifluoromethoxy)benzyl)-1-(2-hydroxy-2-methylpropanoyl)piperidine-3-carboxamide] | 2.4
N#Cc1ccc(CNC(=O)[C@@H]2CCCN(C(=O)C3(O)CCCCC3)C2)c(OC(F)(F)F)c1 [Example Compound 20, (R)—N-(4-cyano-2-(trifluoromethoxy)benzyl)-1-(1-hydroxycyclohexanecarbonyl)piperidine-3-carboxamide] | 0.7
CS(=O)(=O)NC1(C(=O)N2CCC[C@@H](C(=O)NCc3ccc(C#N)cc3OC(F)(F)F)C2)CCOCC1 [Example Compound 28, (R)—N-(4-cyano-2-(trifluoromethoxy)benzyl)-1-(4-(methylsulfonamido)tetrahydro-2H-pyran-4-carbonyl)piperidine-3-carboxamide] | 2.3
CC(C)(C)C(=O)NC1(C(=O)N2CCC[C@@H](C(=O)NCc3ccc(C#N)cc3OC(F)(F)F)C2)CC1 [Example Compound 27, (R)—N-(4-cyano-2-(trifluoromethoxy)benzyl)-1-(1-pivalamidocyclopropanecarbonyl)piperidine-3-carboxamide] | 2.2
CC(C)[C@@H](O)C(=O)N1CCC[C@@H](C(=O)NCc2ccc(C#N)cc2OC(F)(F)F)C1 [Example Compound 44, (R)—N-(4-cyano-2-(trifluoromethoxy)benzyl)-1-((R)-2-hydroxy-3-methylbutanoyl)piperidine-3-carboxamide] | 0.5

Next, values leading:

IC50 [nM] | SMILES
1.3 | CCC(=O)N[C@@H](C(=O)N1CCC[C@@H](C(=O)NCc2ccc(C#N)cc2OC(F)(F)F)C1)C(C)(C)O [Example Compound 31, (R)—N-(4-cyano-2-(trifluoromethoxy)benzyl)-1-((R)-3-hydroxy-3-methyl-2-propionamidobutanoyl)piperidine-3-carboxamide]
2.5 | CC(=O)N[C@H](C)C(=O)N1CCC[C@@H](C(=O)NCc2ccc(C#N)cc2OC(F)(F)F)C1 [Example Compound 24, (R)-1-((R)-2-acetamidopropanoyl)-N-(4-cyano-2-(trifluoromethoxy)benzyl)piperidine-3-carboxamide]
1.4 | CC(=O)N[C@@H](C(=O)N1CCC[C@@H](C(=O)NCc2ccc(C#N)cc2OC(F)(F)F)C1)C(C)(C)O [Example Compound 30, (R)-1-((R)-2-acetamido-3-hydroxy-3-methylbutanoyl)-N-(4-cyano-2-(trifluoromethoxy)benzyl)piperidine-3-carboxamide]
0.5 | CC(=O)N[C@@H](C(=O)N1CCC[C@@H](C(=O)NCc2ccc(C#N)cc2OC(F)(F)F)C1)C(C)C [Example Compound 11, (R)-1-((R)-2-acetamido-3-methylbutanoyl)-N-(4-cyano-2-(trifluoromethoxy)benzyl)piperidine-3-carboxamide]
0.7 | CCC(=O)N[C@@H](C(=O)N1CCC[C@@H](C(=O)NCc2ccc(Cl)cc2Cl)C1)C(C)(C)O [Example Compound 40, (R)—N-(2,4-dichlorobenzyl)-1-((R)-3-hydroxy-3-methyl-2-propionamidobutanoyl)piperidine-3-carboxamide]
2.1 | O=C(NCc1ccc(Cl)cc1Cl)[C@@H]1CCCN(C(=O)C2(O)CCCCC2)C1 [Example Compound 38, (R)—N-(2,4-dichlorobenzyl)-1-(1-hydroxycyclohexanecarbonyl)piperidine-3-carboxamide]
